Reference: ChEMBL document CHEMBL3885861, “Open TG-GATES”

Organism: Rattus norvegicus
Experiment: Open TG-GATES - Regimen: Single
Type: toxicity, organism-based, Sprague-Dawley
Parameters: regimen Single, gender Male, age 6 weeks
Details: in vivo, po, route gavage; for Hb / Ht / Lym / MCH / MCHC / MCV / Mono / Neu / PT / Plat / RBC / Ret / WBC / APTT / Bas / Eos / Fbg: tissue Blood; for KIDNEY_L / KIDNEY_R / KIDNEY_TOTAL: tissue Kidney; for LIVER: tissue Liver; for ALP / ALT / AST / BUN / CRE / Ca / Cl / DBIL / GLC / IP / K / LDH / Na / PL / RALB / TBIL / TC / TP / gamma-GTP: tissue Plasma
[1] = 50 mg/kg, 6 h, dose level Middle
[2] = 50 mg/kg, 9 h, dose level Middle
[3] = 50 mg/kg, 24 h, dose level Middle
[4] = 150 mg/kg, 3 h, dose level High

## O=P1(N(CCCl)CCCl)NCCCO1 (stereo unspecified) [CYCLOPHOSPHAMIDE ANHYDROUS]
[1]
  Hb: 12.8 g/dL
  Ht: 37.8%
  Lym: 73.2%
  MCH: 21.1 pg
  MCHC: 33.7%
  MCV: 62.7 fL
  Mono: 2.6%
  Neu: 22.8%
  PT: 14.2 s
  Plat: 115.3 x10_4/uL
  RBC: 603.6 x10_4/ul
  Ret: 8.9%
  WBC: 84.9 x10_2/uL
  KIDNEY_L: 0.9 g
  KIDNEY_R: 0.8 g
  KIDNEY_TOTAL: 1.7 g
  LIVER: 7.5 g
  ALP: 1677 IU/L
  ALT: 35 IU/L
  AST: 72.8 IU/L
  BUN: 9.6 mg/dL
  CRE: 0.2 mg/dL
  Ca: 10.9 mg/dL
  Cl: 106.2 meq/L
  DBIL: 0.016 mg/dL
  GLC: 171.6 mg/dL
  IP: 9.9 mg/dL
  K: 4.4 meq/L
  LDH: 65 IU/L
  Na: 141.4 meq/L
  PL: 134 mg/dL
  RALB: 2.5 g/dL
  TBIL: 0.064 mg/dL
  TC: 72.2 mg/dL
  TP: 5.4 g/dL
  gamma-GTP: 1.4 IU/L
[2]
  TERMINAL_BW: 187.4 g
  APTT: 17.8 s
  Bas: 0%
  Eos: 1%
  Fbg: 284.8 mg/dL
  Hb: 12.7 g/dL
  Ht: 37.5%
  Lym: 76%
  MCH: 20.9 pg
  MCHC: 33.8%
  MCV: 61.8 fL
  Mono: 2%
  Neu: 21%
  PT: 14.1 s
  Plat: 112.4 x10_4/uL
  RBC: 606.8 x10_4/ul
  Ret: 9.1%
  WBC: 56.3 x10_2/uL
  KIDNEY_L: 0.8 g
  KIDNEY_R: 0.8 g
  KIDNEY_TOTAL: 1.7 g
  LIVER: 7.1 g
  ALP: 1578.4 IU/L
  ALT: 28.4 IU/L
  AST: 67.4 IU/L
  BUN: 9.6 mg/dL
  CRE: 0.2 mg/dL
  Ca: 10.6 mg/dL
  Cl: 106.8 meq/L
  DBIL: 0.016 mg/dL
  GLC: 177.2 mg/dL
  IP: 10.7 mg/dL
  K: 4.1 meq/L
  LDH: 55.4 IU/L
  Na: 142.8 meq/L
  PL: 125.4 mg/dL
  RALB: 2.5 g/dL
  TBIL: 0.066 mg/dL
  TC: 73.8 mg/dL
  TP: 5.3 g/dL
  gamma-GTP: 1.6 IU/L
[3]
  TERMINAL_BW: 200.3 g
  APTT: 24.4 s
  Bas: 0%
  Eos: 1%
  Fbg: 285.8 mg/dL
  Hb: 13 g/dL
  Ht: 38.7%
  Lym: 80.8%
  MCH: 20.8 pg
  MCHC: 33.5%
  MCV: 62 fL
  Mono: 2.4%
  Neu: 15.4%
  PT: 14.5 s
  Plat: 114 x10_4/uL
  RBC: 624.4 x10_4/ul
  Ret: 5.5%
  WBC: 30.3 x10_2/uL
  KIDNEY_L: 0.9 g
  KIDNEY_R: 0.9 g
  KIDNEY_TOTAL: 1.8 g
  LIVER: 8.4 g
  ALP: 1583 IU/L
  ALT: 36.8 IU/L
  AST: 68.8 IU/L
  BUN: 14 mg/dL
  CRE: 0.2 mg/dL
  Ca: 11 mg/dL
  Cl: 106 meq/L
  DBIL: 0.026 mg/dL
  GLC: 176.4 mg/dL
  IP: 8.3 mg/dL
  K: 4.4 meq/L
  LDH: 101.8 IU/L
  Na: 140.4 meq/L
  PL: 143.2 mg/dL
  RALB: 2.5 g/dL
  TBIL: 0.066 mg/dL
  TC: 79.4 mg/dL
  TP: 5.4 g/dL
  gamma-GTP: 1 IU/L
[4]
  TERMINAL_BW: 193.2 g
  APTT: 16.8 s
  Bas: 0%
  Eos: 0.8%
  Fbg: 274.6 mg/dL
  Hb: 12.8 g/dL
  Ht: 38.2%
  Lym: 77.6%
  MCH: 21.2 pg
  MCHC: 33.3%
  MCV: 63.5 fL
  Mono: 2.8%
  Neu: 18%
  PT: 14 s
  Plat: 118.8 x10_4/uL
  RBC: 602 x10_4/ul
  Ret: 9.4%
  WBC: 95.6 x10_2/uL
  KIDNEY_L: 0.9 g
  KIDNEY_R: 0.9 g
  KIDNEY_TOTAL: 1.7 g
  LIVER: 8 g
  ALP: 1465.2 IU/L
